Assay results from ChEMBL document CHEMBL1201862, “PubChem BioAssay data set” (2004).
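48-hour exposure; five concentrations; linearly interpolated endpoints. GI50 is the concentration that inhibits growth by half.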 Activity calls are given as the source filed them. Rule as the data show it: active = GI50 up to about 1.1 µM and inactive = higher.

Key:
Assay in all cases: inhibition of tumour cell growth, NCI panel, 48 h
[1] = tested on: A549
[2] = tested on: DU-145
[3] = tested on: HL-60
[4] = tested on: HT-29
[5] = tested on: KM12
[6] = tested on: MDA-MB-231
[7] = tested on: NCI-H226
[8] = tested on: NCI/ADR-RES
[9] = tested on: RPMI-8226
[10] = tested on: SF-268
[11] = tested on: SK-MEL-28
[12] = tested on: SK-MEL-2
[13] = tested on: SK-OV-3
[14] = tested on: SNB-75
[15] = tested on: SR
[16] = tested on: T47D
[17] = tested on: UACC-257
[18] = tested on: UACC-62
[19] = tested on: TK-10

Row | Compound | GI50 [1] | GI50 [2] | GI50 [3] | GI50 [4] | GI50 [5] | GI50 [6] | GI50 [7] | GI50 [8] | GI50 [9] | GI50 [10] | GI50 [11] | GI50 [12] | GI50 [13] | GI50 [14] | GI50 [15] | GI50 [16] | GI50 [17] | GI50 [18] | GI50 [19]
1 | CC(=O)OC(=C(C#N)C#N)c1nccnc1C(=O)O | > 100 µM (inactive) | > 100 µM (inactive) | > 100 µM (inactive) | > 100 µM (inactive) | > 100 µM (inactive) | > 100 µM (inactive) | > 100 µM (inactive) | > 100 µM (inactive) | > 100 µM (inactive) | > 100 µM (inactive) | > 100 µM (inactive) | > 100 µM (inactive) | > 100 µM (inactive) | 95.7 µM (inactive) | > 100 µM (inactive) | > 100 µM (inactive) | > 100 µM (inactive) | > 100 µM (inactive) | –
2 | COC(=O)c1ccccc1/C=C1\Cc2cc3c(cc2C1=O)CCC3 | > 100 µM (inactive) | > 100 µM (inactive) | > 100 µM (inactive) | > 100 µM (inactive) | > 100 µM (inactive) | > 100 µM (inactive) | > 100 µM (inactive) | > 100 µM (inactive) | > 100 µM (inactive) | 68.5 µM (inactive) | > 100 µM (inactive) | 20.7 µM (inactive) | > 100 µM (inactive) | 34.9 µM (inactive) | > 100 µM (inactive) | > 100 µM (inactive) | > 100 µM (inactive) | 32.1 µM (inactive) | 59.8 µM (inactive)
3 | O=C(c1cc2c(c3ccccc13)NCCN=C2C(F)(F)F)C(F)(F)F | – | 41.4 µM (inactive) | 16.3 µM (inactive) | 11.6 µM (inactive) | 19.4 µM (inactive) | 20.2 µM (inactive) | 18.5 µM (inactive) | 27 µM (inactive) | 6.95 µM (inactive) | 24 µM (inactive) | 18.9 µM (inactive) | 18.7 µM (inactive) | 37.4 µM (inactive) | 21.6 µM (inactive) | 3.94 µM (inactive) | 21.4 µM (inactive) | 19.3 µM (inactive) | – | 24.9 µM (inactive)
4 | CN(CCCNC(=O)c1nn(-c2ccccc2)c2c1Cc1ccccc1-2)CCCNC(=O)c1nn(-c2ccccc2)c2c1Cc1ccccc1-2 | 1.66 µM (inactive) | 1.7 µM (inactive) | 0.603 µM (active) | 1.73 µM (inactive) | 1.9 µM (inactive) | 1.76 µM (inactive) | – | 1.63 µM (inactive) | 1.72 µM (inactive) | 1.63 µM (inactive) | 1.59 µM (inactive) | 1.69 µM (inactive) | 1.72 µM (inactive) | 1.36 µM (inactive) | 0.191 µM (active) | 1.92 µM (inactive) | 1.72 µM (inactive) | 1.77 µM (inactive) | 1.74 µM (inactive)
5 | CCOc1ccc(/N=N/C2C(=O)N(C(=O)CC(=O)Nc3ccc(Cl)cc3)N=C2C)cc1 (configuration not stated) | > 100 µM (inactive) | > 100 µM (inactive) | > 100 µM (inactive) | > 100 µM (inactive) | > 100 µM (inactive) | > 100 µM (inactive) | > 100 µM (inactive) | > 100 µM (inactive) | > 100 µM (inactive) | > 100 µM (inactive) | > 100 µM (inactive) | > 100 µM (inactive) | > 100 µM (inactive) | 18.4 µM (inactive) | > 100 µM (inactive) | > 100 µM (inactive) | – | > 100 µM (inactive) | > 100 µM (inactive)
6 | COc1ccc(C(=O)Nc2ccc3oc(-c4ccccc4)nc3c2)cc1 | > 100 µM (inactive) | > 100 µM (inactive) | > 100 µM (inactive) | > 100 µM (inactive) | > 100 µM (inactive) | > 100 µM (inactive) | > 100 µM (inactive) | 70.1 µM (inactive) | > 100 µM (inactive) | > 100 µM (inactive) | > 100 µM (inactive) | > 100 µM (inactive) | 56.4 µM (inactive) | 29 µM (inactive) | > 100 µM (inactive) | > 100 µM (inactive) | > 100 µM (inactive) | > 100 µM (inactive) | > 100 µM (inactive)
7 | CC(=O)NC1C(OCc2ccccc2)OC(CO)C(O)C1OCC(=O)NC(C(=O)NC(CCC(=O)NCCCCCC(=O)Nc1ccc2c(c1)CN1C(=O)c3ccccc3C1=N2)C(N)=O)C(C)C (configuration not stated) | 41.4 µM (inactive) | 63.8 µM (inactive) | > 100 µM (inactive) | 42.8 µM (inactive) | 19.1 µM (inactive) | 25.5 µM (inactive) | – | 45.8 µM (inactive) | 97.7 µM (inactive) | 19.7 µM (inactive) | 20.8 µM (inactive) | 27.1 µM (inactive) | 18.8 µM (inactive) | 22 µM (inactive) | 88.1 µM (inactive) | 22.3 µM (inactive) | 25.9 µM (inactive) | 20.9 µM (inactive) | 18.3 µM (inactive)
